Results on 9 molecules are retold here after patent publication US7223792B2, “Cytotoxic annonaceous acetogenins from Annona muricata” (Advpharma Inc., priority 2001, dated 2007).

Converted amounts (≈) assume the structure as drawn. Where two headings read alike, the source gives them in different places.

For data set [1], the system named is 2,2,15. Put plainly: three days cytotoxicity bioassay against 2,2,15. The following applies: for IC50: 72 h, read-out: Cytotoxicity IC50 2,2,15. It counts as cell-based, human. The source says:
Adriamycin was used as a standard.

Data set [2] concerns Hep G2. Put plainly: three days cytotoxicity bioassay against Hep G2. Particulars: for Cytotoxicity IC50 Hep G2: human hepatoma cell line Hep G2, three days bioassay; for IC50: Homo sapiens, HepG2, 72 h, read-out: Cytotoxicity IC50 Hep G2.
Where [3] appears, read: human hepatoma cell line 2,2,15, three days bioassay.

`CCCCCC(O)C(O)CCCCCC[C@@H](O)[C@H]1CC[C@H](CCCCCCCCCC[C@@H](O)CC2=C[C@H](C)OC2=O)O1` (some centres unmarked) [Muricin A (1), Muricin A]: the “Cytotoxicity IC50 2,2,15” value in data set [1] (setting [3]) stood at 5.13 ng/mL. The “Cytotoxicity IC50 Hep G2” value in data set [2] was 5.04 µg/mL. The “times more potent than muricin B against Hep G2” value in data set [2] (muricin A (4R-OH) compared with muricin B (4S-OH), Hep G2) came out at 2.5 times.
`CCCCC(O)C(O)C/C=C\CC[C@H](O)[C@@H]1CC[C@@H](CCCCCCCCCCCC[C@@H](O)CC2=C[C@H](C)OC2=O)O1` (some centres unmarked) [Muricin F (6), Muricin F]: in data set [1] (comparison in words, 2,2,15), the “cytotoxicity compared with muricin C against 2,2,15” value is reported as “more cytotoxic than muricin C”. The “Cytotoxicity IC50 2,2,15” value in data set [1] (setting [3]) turned out to be 3.86 ng/mL. For the same molecule, the “cytotoxicity compared with muricin C against Hep G2” value in data set [2] (comparison in words, Hep G2) is given as “more cytotoxic than muricin C”. In data set [2], the “Cytotoxicity IC50 Hep G2” value was found to be 0.0428 µg/mL.
As to “Corossolin [Corossolin (11), reference compound]”, the “Cytotoxicity IC50 2,2,15” value in data set [1] (setting [3]) was determined as 234 ng/mL.
For the molecule `CCCCCCCC(O)C(O)CC[C@H](O)[C@@H]1CC[C@H](CCCCCCCCCCCC[C@@H](O)CC2=C[C@H](C)OC2=O)O1` (some centres unmarked) [Muricin C (3), Muricin C], the “Cytotoxicity IC50 2,2,15” value in data set [1] (setting [3]) was 3.87 ng/mL. Besides, the “Cytotoxicity IC50 Hep G2” value in data set [2] came out at 0.499 µg/mL.
Consider `COc1cccc2c1C(=O)c1c(O)c3c(c(O)c1C2=O)C[C@@](O)(C(=O)CO)C[C@@H]3O[C@H]1C[C@H](N)[C@H](O)[C@H](C)O1` [Adriamycin, reference compound], for which the IC50 (in general, the concentration at which inhibition is half-maximal) is 0.45 µg/mL (≈ 0.828 µM) in data set [1] (setting [3]) and 0.241 µg/mL (≈ 0.443 µM) in data set [2].
For `CCCCCCCCCCCCCC[C@@H](O)[C@H]1CC[C@H]([C@H](O)CC[C@H](O)CCCCCCCC2=C[C@H](C)OC2=O)O1` [Longifolicin (10), Longifolicin, reference compound], in that order: 0.0049 µg/mL (≈ 0.00844 µM) and 0.000404 µg/mL (≈ 0.000695 µM).
As for `CCCCCCCC(O)C(O)CC[C@H](O)[C@@H]1CC[C@@H](CCCCCCCCCC[C@@H](O)CC2=C[C@H](C)OC2=O)O1` (some centres unmarked) [Muricin D (4), Muricin D], the “Cytotoxicity IC50 2,2,15” value in data set [1] (setting [3]) stood at 48 ng/mL. The “Cytotoxicity IC50 Hep G2” value in data set [2] stood at 0.00066 µg/mL.
Regarding `CCCCCCCCCCCC[C@@H](O)[C@H]1CC[C@@H]([C@@H](O)CCCCC(=O)CCCCCCCC2=C[C@H](C)OC2=O)O1` [Corossolone (12), Corossolone, reference compound], the IC50 in data set [1] (Homo sapiens) stood at 0.284 µg/mL (≈ 0.491 µM); in data set [2], 0.48 µg/mL (≈ 0.829 µM).
For `CCCCCC(O)C(O)CCCCCC[C@H](O)[C@@H]1CC[C@H](CCCCCCCCCC[C@H](O)CC2=C[C@H](C)OC2=O)O1` (some centres unmarked) [Muricin B (2), Muricin B], in data set [1] (setting [3]), the “Cytotoxicity IC50 2,2,15” value came out at 4.29 ng/mL. Also, the “Cytotoxicity IC50 Hep G2” value in data set [2] came to 1.78 µg/mL.
